Reference: patent US7183094B2, “Bacterial mycothiol S-conjugate amidase family” (The Regents of the University of California, priority 1999, dated 2007)

Assays:
[1] = target: mycothiol S-conjugate amidase in partially purified M. smegmatis cell extract (Mycolicibacterium smegmatis, UniProt A0R2W9); conditions: for product yielded from 1.0 equivalent of MSmB (0.1 nmol): 4 determinations at >50% conversion
Method: The experiment was repeated using a partially purified cell extract and samples of the incubation mixture were analyzed at intervals for the other potential product of MSmB cleavage, GlcN-Ins, as well as for MSmB and AcCySmB.
A preparation of the mycothiol S-conjugate amidase (30–50% saturated ammonium sulfate fraction chromatographed on Sephadex G-75) was used to study the stoichiometry of the reaction. Reaction was initiated by mixing a sample (9 μL, 7 μg total protein) of the preparation of the enzyme with 0.9 mL of 50 mM sodium phosphate, pH 7.5 containing 100 μM MSmB.
For determination of bimane derivatives of thiols, a sample (70 μL) of reaction mixture was removed, mixed with 4 μL 5 M methanesulfonic acid, and analyzed by HPLC without dilution.
For analysis of GlcN-Ins, a sample (2–8 μL) of the reaction mixture was mixed with enough 1M HEPES chloride pH 8 to bring the volume to 10 μl and then with 5 μL acetonitrile and 5 μL of 10 mM AccQ-Fluor reagent (6-aminoquinolyl-N-hydroxysuccinimidyl carbamate, Waters). The mixtures were incubated for 1 min at room temperature followed by 10 min at 60° C., diluted with 60 μL of water, and quantified by HPLC as previously described (S. J. Anderberg, et al. (1998) supra.).

[2] = target: M. tuberculosis mycothiol S-conjugate amidase (Rv1082) (Mycobacterium tuberculosis, UniProt P9WJN1); assay: Amidase activity of recombinant Rv1082 protein expressed in E. coli; type: biochemical, Mycobacterium tuberculosis H37Rv; conditions: for amidase activity: 0.1 mM (100 μM) substrate, extracts of IPTG-induced cells
Sequence of M. tuberculosis mycothiol S-conjugate amidase (Rv1082) (P9WJN1 whole entry, looked up): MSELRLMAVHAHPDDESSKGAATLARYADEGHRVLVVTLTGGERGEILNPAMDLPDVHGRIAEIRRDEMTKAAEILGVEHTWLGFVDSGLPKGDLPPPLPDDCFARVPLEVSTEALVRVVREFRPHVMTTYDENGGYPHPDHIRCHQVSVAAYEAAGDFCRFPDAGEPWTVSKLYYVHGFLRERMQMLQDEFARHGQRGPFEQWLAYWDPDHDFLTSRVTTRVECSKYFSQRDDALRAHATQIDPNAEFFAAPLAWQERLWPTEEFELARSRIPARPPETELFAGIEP
Method: Purification and renaturation of mycothiol S-conjugate amidase from inclusion bodies. The approach taken involved solublization of the inclusion bodies in a highly concentrated urea and DTT solution followed by […] Cells were cultured in Luria Bertani broth containing 100 μg/mL ampicillin at 37° C. to OD600=0.8 when isopropyl-β-D-thiogalactopyranoside added to 0.4 mM and the culture was shaken overnight at 25° C. Cells were pelleted by centrifugation for 10 min at 5000 g and 4° C., sonicated in 5 volumes of assay buffer on ice, and centrifuged for 5 min at 14000 g at room temperature. About 85% of the amidase activity, using MSmB as substrate, was associated with the pellet fraction which was resuspended and incubated with periodic vortexing for 1 h at 37° C. in 8 M urea containing 20 mM DTT. The suspension was centrifuged for 3 min at 14000 g and the supernatant dialyzed against 100 volumes of 25 mM HEPES chloride pH 7.5 containing 1 mM glutathione disulfide and 2 mM glutathione for 15 h, and then against 100 volumes of 25 mM HEPES chloride pH 7.5 containing 3 mM 2-mercaptoethanol for 4 h. After centrifugation, the supernatant contained soluble amidase activity and was assayed with 0.1 mM mycothiol and 0.1 mM MSmB as described above.
Alkylation of MSH with mBBr produces the fluorescent S-conjugate, MSmB, which can be quantitated by HPLC with fluorescence detection (Newton et al. 1995; Newton et al. 1996). E coli has no mycothiol metabolism and is not expected to contain mycothiol conjugate amidase endogenous proteins that would give background to these assays.
Functional and Comparative analysis of mycothiol S-conjugate amidase. […] When these extracts were assayed with 0.1 mM mycothiol as substrate, <0.002 nmol/min/mg amidase activity was observed. […] (Table 2).

[3] = target: T1, purified M. smegmatis mycothiol S-conjugate amidase (Mycolicibacterium smegmatis, UniProt A0R2W9)
T1 sequence (A0R2W9 whole entry): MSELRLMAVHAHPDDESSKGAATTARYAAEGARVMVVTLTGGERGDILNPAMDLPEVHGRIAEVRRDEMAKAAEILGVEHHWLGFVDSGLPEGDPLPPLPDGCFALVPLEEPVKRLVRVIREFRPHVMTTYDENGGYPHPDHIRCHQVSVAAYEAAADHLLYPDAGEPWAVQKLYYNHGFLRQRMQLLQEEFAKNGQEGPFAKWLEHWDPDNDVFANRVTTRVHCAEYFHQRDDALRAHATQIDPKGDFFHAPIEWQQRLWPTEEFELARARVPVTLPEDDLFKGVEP
Method: In vitro Enzymatic assays. […] Separation of the various modified thiols was performed by high-pressure liquid chromatography (HPLC). A sample (2–10 μL) of extract was mixed with 40 μL of 30 μM MSmB in 3 mM 2-mercaptoethanol, 25 mM N-2-hydroxyethylpiperazine-N′-2-ethanesulfonic acid (HEPES) chloride pH 7.5 and reacted […] at 30° C. before quenching the reaction with 50 μL of 40 mM methanesulfonic acid on ice. The mixture was centrifuged for 3 min at 14,000×g in a microcentrifuge at room temperature and the supernatant analyzed by HPLC without dilution. A shortened version (45 min) of HPLC method 1 of Fahey and Newton (R. C. Fahey, et al. (1987) Methods Enzymol. 143:85–96) was used for separation of MSmB and AcCySmB.

[4] = target: T1, purified M. smegmatis mycothiol S-conjugate amidase; assay: Substrate specificity of purified mycothiol S-conjugate amidase (GlcN-Ins production); type: biochemical, Mycobacterium smegmatis; conditions: for Activity: GlcN-Ins production from 0.1 mM substrate by 0.022 μg purified amidase at 30 C; for Relative Activity (%): relative to MSmB taken as 100%, 0.1 mM substrate
Method: The specificity of the amidase for substrate was assessed by measuring the production of GlcN-Ins in most cases. A sample (5 μL) of 1 mM substrate was mixed with 40 μL of 3 mM 2-mercaptoethanol, 25 mM HEPES chloride, pH 7.5. The reaction was initiated with 5 μL of purified amidase (50-fold diluted stock, 4.4 μg ml^−1). Triplicate samples were quenched at 0, 10, and 30 min by mixing each sample with 50 μL of acetonitrile containing 5 mM NEM and incubating at 60 C for 10 min. After cooling on ice, the samples were clarified by centrifugation for 15 min at 14000 g. […]

[5] = target: M. smegmatis mycothiol S-conjugate amidase (Mycolicibacterium smegmatis, UniProt A0R2W9); assay: Inhibition of amidase cleavage of MSmB; type: biochemical, Mycobacterium smegmatis; conditions: 100 μM MSmB as substrate, n=2
Sequence of M. smegmatis mycothiol S-conjugate amidase (A0R2W9 whole entry): as above
Method: Tests were also conducted to determine whether mycothiol inhibits the cleavage of 100 μM MSmB by invention S-conjugate amidase. The amidase activity was decreased by 30±3, 48±3, and 89±3% (n=2) at 1, 3, and 10 mM mycothiol, respectively.
Preparation of Mycothiol S-conjugates. Mycothiol S-conjugates were prepared by reaction of excess electrophile with mycothiol followed by removal or reaction of excess electrophile. Stock solutions (100 mM) of electrophile were prepared in acetonitrile (NEM, iodoacetamide; Sigma) or in dimethylsulfoxide [7-diethylamino-3-(4′-maleimidylphenyl)-4-methylcoumarin (CPM, Molecular Probes), 3-(N-maleimidopropionyl)biocytin (MPB, Sigma)]. Reaction with these electrophiles at 2 mM in 25 mM *HEPES chloride pH 7.5 was initiated by addition of mycothiol to 1 mM from a 32 mM stock solution in H2O (pH˜3) and was allowed to proceed 15 min in the dark. Excess reagent was removed by extracting 3 times with an equal volume of H2O-saturated dichloromethane. A cerulenin (Sigma) stock solution (100 mM in acetonitrile) was diluted 5-fold in 25 mM HEPES chloride pH 7.5, reacted 15 min with 1 mM mycothiol, and extracted 5 times with H2O-saturated dichloromethane. Prior to extraction a 1 μL aliquot was withdrawn for reaction with mBBr and analysis of residual mycothiol by HPLC. […] Stock solutions (50 mM) of p-sulfobenzoyloxybromobimane (sBBr) and monobromotrimethylammoniobimane (qBBr) were prepared in 50% aqueous dimethylsulfoxide and diluted to 2 mM for reaction with 1 mM mycothiol in 25 mM HEPES chloride pH 7.5 for 15 min. Since these charged electrophiles cannot be extracted with dichloromethane, reaction was terminated with excess (1.1 mM) 2-mercaptoethanol.

[6] = test system: M. smegmatis mc^2155 cells; assay: M. smegmatis culture treated with mBBr: fate of mycothiol-related compounds and growth; type: cell-based, Mycobacterium smegmatis
Method: Since mBBr is known to penetrate cells rapidly and to convert intracellular thiols to their bimane derivatives (Newton, et al. (1995) supra.), the fate of mycothiol in M. smegmatis cells treated with mBBr was examined to ascertain whether the reaction shown in FIG. 1C occurs in vivo. A logarithmic phase culture of M. smegmatis was cooled on ice to ˜3° C. to reduce enzymatic reactions prior to reaction with 0.5 mM mBBr. Excess reagent was reacted with 2-mercaptoethanol and the cells were pelleted, washed, and resuspended in a small amount of ice cold medium. The cells were diluted with prewarmed medium and replaced in the shaking incubator at 37° C. (time, t=0). Samples were removed and analyzed for intracellular and extracellular mycothiol related compounds over a 4 h interval (FIG. 3).
A logarithmic phase culture of M. smegmatis was cooled on ice to ˜3° C. to reduce enzymatic reactions prior to reaction with 0.5 mM mBBr. Excess reagent was reacted with 2-mercaptoethanol and the cells were pelleted, washed, and resuspended in a small amount of ice cold medium. The cells were diluted with prewarmed medium and replaced in the shaking incubator at 37° C. (time, t=0). Samples were removed and analyzed for intracellular and extracellular mycothiol related compounds over a 4 h interval (FIG. 3).
At t=0, […] per 100 mL (3.5 μmol per g RDW) of AcCySmB was present in the cells and […] per 100 mL was found in the medium. Within 5 min the cellular AcCySmB level had fallen to […] per 100 mL and the medium level increased to 220 nmol per 100 mL. Subsequent analyses found essentially all of the AcCySmB in the medium at a level of 225–230 nmol per 100 mL, accounting for 80–90% of the original cellular mycothiol content. No MSmB appears to be exported from cells as […] (<0.5%) was detected in the medium or the cell washes. A logarithmic phase culture (1 L) of M. smegmatis mc^2155 (OD600=1.2) in 7H9 Middlebrook medium was cooled on ice to 3° C. The iced culture was incubated with mBBr (0.5 mM from a 180 mM stock solution in acetonitrile) for 20 min; excess 2-mercaptoethanol (1.0 mM) was added, and the incubation continued on ice for an additional 10 min. The cells were pelleted by centrifugation and washed twice with 200 mL of sterile, ice-cold 7H9 Middlebrook medium to remove excess bimane derivative of 2-mercaptoethanol. The cells were resuspended in 50 mL of sterile ice cold medium and the experiment was initiated (t=0) by dilution into 950 mL of prewarmed (37° C.) 7H9 Middlebrook medium. The cell suspension was shaken in an incubator (225 rpm, 37° C.) and a “t=0” sample (100 mL) was removed from the culture within one min. […]

[7] = test system: M. smegmatis mutant blocked in mycothiol production; conditions: Newton et al. (1999); cited from earlier work
[8] = 0.1 mM substrate, resolubilized crude protein extract

Sequence of mycothiol S-conjugate amidase in partially purified M. smegmatis cell extract (A0R2W9 whole entry): as above

Compound: CC(=O)N[C@@H](CSCc1c(C)c(=O)n2c(=O)c(C)c(C)n12)C(=O)O [AcCySmB]
- product yielded from 1.0 equivalent of MSmB (0.1 nmol) [1]: 1.00±0.02 equivalent

Compound: N[C@H]1[C@@H](OC2[C@H](O)[C@H](O)C(O)[C@H](O)[C@H]2O)O[C@H](CO)[C@@H](O)[C@@H]1O (stereo partly drawn) [GlcN-Ins, 1-D-myo-inosityl-2-amino-2-deoxy-α-D-glucopyranoside]
- product yielded from 1.0 equivalent of MSmB (0.1 nmol) [1]: 0.80±0.08 equivalent

Compound: CC(=O)N[C@@H](CSCc1c(C)c(=O)n2c(=O)c(C)c(C)n12)C(=O)N[C@H]1[C@@H](OC2[C@H](O)[C@H](O)C(O)[C@H](O)[C@H]2O)O[C@H](CO)[C@@H](O)[C@@H]1O (some centres unmarked) [MSmB]
- amidase activity [2]: 4.1 nmol/min/mg
- AcCysmB produced [2, 8]: 5.4±0.3 nmoles/min/mg protein
- GlcN-Ins produced [2, 8]: 4.1±0.05 nmoles/min/mg protein
- rate enhancement relative to mycothiol (free thiol) ([2]; recombinant M. tuberculosis amidase): more than 2000 fold
- conversion of MSmB ([1]; 60 min at 23° C.): 97%
- specific activity of pooled G-100 peak fractions ([3]; 30 μM MSmB as substrate): ~3,000 nmol/min-mg protein
- amidase reaction rate ([3]; 30 μM MSmB, purified amidase): ~3000 nmol/min/mg
- Km ([3]; MSmB as substrate): 95 ± 8 µM
- kcat ([3]; MSmB as substrate): 8 s⁻¹
- Activity [4]: 4480 ± 870 nmol/min/mg
- Relative Activity (%) [4]: (100) %

Compound: CC(=O)N[C@@H](CSSC[C@H](NC(C)=O)C(=O)N[C@H]1[C@@H](OC2[C@H](O)[C@H](O)C(O)[C@H](O)[C@H]2O)O[C@H](CO)[C@@H](O)[C@@H]1O)C(=O)N[C@H]1[C@@H](OC2[C@H](O)[C@H](O)C(O)[C@H](O)[C@H]2O)O[C@H](CO)[C@@H](O)[C@@H]1O (some centres unmarked) [Mycothiol disulfide]
- Activity [4]: 25 ± 1 nmol/min/mg
- Relative Activity (%) [4]: 0.6%

Compound: CC(=O)N[C@@H](CS)C(=O)N[C@H]1[C@@H](OC2[C@H](O)[C@H](O)C(O)[C@H](O)[C@H]2O)O[C@H](CO)[C@@H](O)[C@@H]1O (stereo partly drawn) [Mycothiol, 1-D-myo-inosityl-2-(N-acetylcysteinyl)amido-2-deoxy-α-D-glucopyranoside]
- decrease of amidase activity ([5]; 1 mM mycothiol): 30±3%
- decrease of amidase activity ([5]; 3 mM mycothiol): 48±3%
- decrease of amidase activity ([5]; 10 mM mycothiol): 89±3%
- amidase activity [2]: < 0.002 nmol/min/mg
- GlcN-Ins produced [2, 8]: < 0.0023 nmoles/min/mg protein
- rate as % of the rate with 0.1 mM MSmB ([4]; 2 mM mycothiol): 0.3%
- rate of GlcN-Ins formation ([4]; 2 mM mycothiol, conditions otherwise as for Table 2): 14 ± 1 nmol/min/mg
- Activity [4]: 4 ± 1 nmol/min/mg
- Relative Activity (%) [4]: 0.1%

Compound: Cc1c(C)n2c(CBr)c(C)c(=O)n2c1=O [mBBr, monobromobimane]
- A600 ([6]; 8.5 h at 37 C after mBBr treatment): 1.6
- final A600 ([6]; 30 h at 37 C after mBBr treatment): ~2.6
- initial decrease of A600 value ([6]; during the 4 h incubation after 0.5 mM mBBr treatment): ~15%
- A600 value recovered ([6]; within the 4 h incubation, equals initial value): 1.2

Compound: CO[C@H]1/C=C/O[C@@]2(C)Oc3c(C)c(O)c4c(O)c(c(/C=N/N5CCN(C)CC5)c(O)c4c3C2=O)NC(=O)/C(C)=C\C=C\[C@H](C)[C@H](O)[C@@H](C)[C@@H](O)[C@@H](C)[C@H](OC(C)=O)[C@@H]1C [rifampin]
- increased sensitivity of the mutant [7]: 20 fold
